Measurements reported in PubChem BioAssay (NCI).
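The concentration for 50% growth inhibition is given as GI50. Definition used: TGI = concentration required for complete inhibition of growth.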

How the values were obtained:
Test in all cases: inhibition of tumour cell growth, NCI panel, 384-well format
NCI-H522 lung = tested on: NCI-H522 lung
MALME-3M melanoma = tested on: MALME-3M melanoma
SK-OV-3 ovarian = tested on: SK-OV-3 ovarian
NCI-H460 NSCLC = tested on: NCI-H460 NSCLC
MDA-MB-468 breast = tested on: MDA-MB-468 breast
KM12 colon = tested on: KM12 colon
SF-295 CNS = tested on: SF-295 CNS
CAKI-1 renal = tested on: CAKI-1 renal
SR leukemia = tested on: SR leukemia
TK-10 renal = tested on: TK-10 renal
PC-3 prostate = tested on: PC-3 prostate
SK-MEL-2 melanoma = tested on: SK-MEL-2 melanoma
UACC-257 melanoma = tested on: UACC-257 melanoma
UACC-62 melanoma = tested on: UACC-62 melanoma
CCRF-CEM leukemia = tested on: CCRF-CEM leukemia
786-0 renal = tested on: 786-0 renal
OVCAR-3 ovarian = tested on: OVCAR-3 ovarian
SNB-19 CNS = tested on: SNB-19 CNS
RXF 393 renal = tested on: RXF 393 renal
NCI-H322M lung = tested on: NCI-H322M lung
BT-549 breast = tested on: BT-549 breast
UO-31 renal = tested on: UO-31 renal
NCI/ADR-RES ovarian = tested on: NCI/ADR-RES ovarian
IGROV1 ovarian = tested on: IGROV1 ovarian
T-47D breast = tested on: T-47D breast
OVCAR-8 ovarian = tested on: OVCAR-8 ovarian
U251 glioblastoma = tested on: U251 glioblastoma
SF-539 CNS = tested on: SF-539 CNS
OVCAR-5 ovarian = tested on: OVCAR-5 ovarian
LOX IMVI melanoma = tested on: LOX IMVI melanoma
SN12C renal = tested on: SN12C renal
SW-620 colon = tested on: SW-620 colon
HT29 colon = tested on: HT29 colon
HL-60(TB) leukemia = tested on: HL-60(TB) leukemia
HOP-62 NSCLC = tested on: HOP-62 NSCLC
MDA-MB-231 breast = tested on: MDA-MB-231 breast
MDA-MB-435 melanoma = tested on: MDA-MB-435 melanoma
HOP-92 NSCLC = tested on: HOP-92 NSCLC
K-562 leukemia = tested on: K-562 leukemia
RPMI-8226 leukemia = tested on: RPMI-8226 leukemia
NCI-H226 lung = tested on: NCI-H226 lung
OVCAR-4 ovarian = tested on: OVCAR-4 ovarian
HCC-2998 colon = tested on: HCC-2998 colon
HCT-15 colon = tested on: HCT-15 colon
COLO 205 colon = tested on: COLO 205 colon
A549 NSCLC = tested on: A549 NSCLC
SF-268 CNS = tested on: SF-268 CNS
MOLT-4 leukemia = tested on: MOLT-4 leukemia
M14 melanoma = tested on: M14 melanoma
A498 renal = tested on: A498 renal
SK-MEL-28 melanoma = tested on: SK-MEL-28 melanoma
NCI-H23 lung = tested on: NCI-H23 lung
SK-MEL-5 melanoma = tested on: SK-MEL-5 melanoma
ACHN renal = tested on: ACHN renal

`CN(C)C/C=C/C(=O)Nc1ccc(C(=O)N[C@@]2(C)CCC[C@@H](Nc3ncc(Cl)c(-c4c[nH]c5ccccc45)n3)C2)nc1` showed a GI50 (NCI-H522 lung) of less than 0.01 µM, a TGI (NCI-H522 lung) of less than 0.01 µM and a GI50 (MALME-3M melanoma) of 0.0125 µM. For the same compound, the TGI (MALME-3M melanoma) was 0.0263 µM, the GI50 (SK-OV-3 ovarian) was less than 0.01 µM and the TGI (SK-OV-3 ovarian) was 0.0854 µM. It also gave a GI50 (NCI-H460 NSCLC) of less than 0.01 µM, a TGI (NCI-H460 NSCLC) of less than 0.01 µM and a GI50 (MDA-MB-468 breast) of less than 0.01 µM. For the same compound, the TGI (MDA-MB-468 breast) was less than 0.01 µM, the GI50 (KM12 colon) was less than 0.01 µM and the TGI (KM12 colon) was 0.0108 µM. The GI50 (SF-295 CNS) was less than 0.01 µM, the TGI (SF-295 CNS) was 0.0675 µM and the GI50 (CAKI-1 renal) was less than 0.01 µM. The TGI (CAKI-1 renal) was 0.103 µM, the GI50 (SR leukemia) was less than 0.01 µM and the TGI (SR leukemia) was less than 0.01 µM. It also gave a GI50 (TK-10 renal) of 0.0167 µM, a TGI (TK-10 renal) of 0.101 µM and a GI50 (PC-3 prostate) of less than 0.01 µM. For the same compound, the TGI (PC-3 prostate) was 0.0444 µM, the GI50 (SK-MEL-2 melanoma) was less than 0.01 µM and the TGI (SK-MEL-2 melanoma) was 0.0109 µM. It also gave a GI50 (UACC-257 melanoma) of less than 0.01 µM, a TGI (UACC-257 melanoma) of 0.0154 µM and a GI50 (UACC-62 melanoma) of less than 0.01 µM. The TGI (UACC-62 melanoma) was less than 0.01 µM, the GI50 (CCRF-CEM leukemia) was less than 0.01 µM and the TGI (CCRF-CEM leukemia) was less than 0.01 µM. It also gave a GI50 ([…]-0 renal) of less than 0.01 µM, a TGI (786-0 renal) of 0.0262 µM and a GI50 (OVCAR-3 ovarian) of less than 0.01 µM. For the same compound, the TGI (OVCAR-3 ovarian) was 0.0129 µM, the GI50 (SNB-19 CNS) was less than 0.01 µM and the TGI (SNB-19 CNS) was 1.34 µM. It also gave a GI50 (RXF 393 renal) of less than 0.01 µM, a TGI (RXF 393 renal) of less than 0.01 µM and a GI50 (NCI-H322M lung) of less than 0.01 µM. For the same compound, the TGI (NCI-H322M lung) was 0.0413 µM, the GI50 (BT-549 breast) was less than 0.01 µM and the TGI (BT-549 breast) was less than 0.01 µM. The GI50 (UO-31 renal) was 0.014 µM, the TGI (UO-31 renal) was 0.042 µM and the GI50 (NCI/ADR-RES ovarian) was 0.202 µM. It also gave a TGI (NCI/ADR-RES ovarian) of 1.09 µM, a GI50 (IGROV1 ovarian) of less than 0.01 µM and a TGI (IGROV1 ovarian) of 0.127 µM. It also gave a GI50 (T-47D breast) of 0.0156 µM, a TGI (T-47D breast) of 0.144 µM and a GI50 (OVCAR-8 ovarian) of less than 0.01 µM. For the same compound, the TGI (OVCAR-8 ovarian) was 0.0278 µM, the GI50 (U251 glioblastoma) was less than 0.01 µM and the TGI (U251 glioblastoma) was 0.0302 µM. For the same compound, the GI50 (SF-539 CNS) was less than 0.01 µM, the TGI (SF-539 CNS) was 0.0204 µM and the GI50 (OVCAR-5 ovarian) was less than 0.01 µM. It also gave a TGI (OVCAR-5 ovarian) of 1.31 µM, a GI50 (LOX IMVI melanoma) of less than 0.01 µM and a TGI (LOX IMVI melanoma) of less than 0.01 µM. For the same compound, the GI50 (SN12C renal) was less than 0.01 µM, the TGI (SN12C renal) was 0.0172 µM and the GI50 (SW-620 colon) was less than 0.01 µM. For the same compound, the TGI (SW-620 colon) was 0.0229 µM, the GI50 (HT29 colon) was less than 0.01 µM and the TGI (HT29 colon) was 0.0722 µM. The GI50 (HL-60(TB) leukemia) was less than 0.01 µM, the TGI (HL-60(TB) leukemia) was less than 0.01 µM and the GI50 (HOP-62 NSCLC) was less than 0.01 µM. The TGI (HOP-62 NSCLC) was less than 0.01 µM, the GI50 (MDA-MB-231 breast) was less than 0.01 µM and the TGI (MDA-MB-231 breast) was 0.115 µM. It also gave a GI50 (MDA-MB-435 melanoma) of less than 0.01 µM, a TGI (MDA-MB-435 melanoma) of 0.0157 µM and a GI50 (HOP-92 NSCLC) of less than 0.01 µM. The TGI (HOP-92 NSCLC) was 0.136 µM, the GI50 (K-562 leukemia) was less than 0.01 µM and the TGI (K-562 leukemia) was 0.0435 µM. It also gave a GI50 (RPMI-8226 leukemia) of less than 0.01 µM, a TGI (RPMI-8226 leukemia) of less than 0.01 µM and a GI50 (NCI-H226 lung) of less than 0.01 µM. For the same compound, the TGI (NCI-H226 lung) was 0.0341 µM, the GI50 (OVCAR-4 ovarian) was less than 0.01 µM and the TGI (OVCAR-4 ovarian) was 0.0359 µM. It also gave a GI50 (HCC-2998 colon) of less than 0.01 µM, a TGI (HCC-2998 colon) of 0.0158 µM and a GI50 (HCT-15 colon) of less than 0.01 µM. It also gave a TGI (HCT-15 colon) of 0.0646 µM, a GI50 (COLO 205 colon) of less than 0.01 µM and a TGI (COLO 205 colon) of less than 0.01 µM. It also gave a GI50 (A549 NSCLC) of less than 0.01 µM, a TGI (A549 NSCLC) of 0.116 µM and a GI50 (SF-268 CNS) of less than 0.01 µM. The TGI (SF-268 CNS) was 0.0162 µM, the GI50 (MOLT-4 leukemia) was less than 0.01 µM and the TGI (MOLT-4 leukemia) was less than 0.01 µM. The GI50 (M14 melanoma) was less than 0.01 µM, the TGI (M14 melanoma) was 0.0137 µM and the GI50 (A498 renal) was less than 0.01 µM. For the same compound, the TGI (A498 renal) was 0.0152 µM, the GI50 (SK-MEL-28 melanoma) was less than 0.01 µM and the TGI (SK-MEL-28 melanoma) was less than 0.01 µM. The GI50 (NCI-H23 lung) was less than 0.01 µM, the TGI (NCI-H23 lung) was 0.0144 µM and the GI50 (SK-MEL-5 melanoma) was less than 0.01 µM. It also gave a TGI (SK-MEL-5 melanoma) of 0.0133 µM, a GI50 (ACHN renal) of less than 0.01 µM and a TGI (ACHN renal) of 0.0886 µM.
